Data as given in ChEMBL document CHEMBL4052697, “Chimeric analogs of human β-defensin 1 and θ-defensin disrupt pre-established bacterial biofilms” (2017).
Converted amounts (≈) assume the structure as drawn. The source made the active and inactive calls. No cut-off for these calls is given here. Non-standard residues stand in square brackets, D forms with d. Residues, ends and D or L forms follow the SMILES beside them. NMeA = CN[C@@H](C)C(=O)O

What was measured:
Assay type in all cases: functional
Escherichia coli [1] = assay: Antibiofilm activity against pre-established 36 hrs old bacterial biofilms of Escherichia coli MG1655 incubated for 4 hrs by XTT assay
Staphylococcus aureus [2] = assay: Antibiofilm activity against pre-established 36 hrs old bacterial biofilms of Staphylococcus aureus NCTC 8530 incubated for 4 hrs by XTT assay
Escherichia coli [3] = assay: Bactericidal activity against Escherichia coli MG1655 planktonic forms
Staphylococcus aureus [4] = assay: Bactericidal activity against Staphylococcus aureus NCTC 8530 planktonic forms

Compound | MBEC (Escherichia coli [1]) | MBEC (Staphylococcus aureus [2]) | MBC (Escherichia coli [3]) | MBC (Staphylococcus aureus [4])
CCCCCCCCCCCCCC(=O)N[C@@H](C)C(=O)N[C@H](C(=O)N[C@@H](Cc1ccc(O)cc1)C(=O)N[C@H](CCCNC(=N)N)C(=O)N[C@H](C(=O)NCC(=O)N[C@H](CCCNC(=N)N)C(=O)N[C@@H](C)C(=O)N[C@H](C(=O)N[C@H](CCCNC(=N)N)C(=O)N[C@@H](CCC(=O)O)C(=O)N[C@@H](CO)C(=O)N[C@@H](CC(C)C)C(=O)N[C@@H](CO)C(=O)NCC(=O)N[C@H](C(=O)N[C@@H](CCC(=O)O)C(=O)N[C@H](C(=O)N[C@@H](CO)C(=O)NCC(=O)N[C@H](CCCNC(=N)N)C(=O)N[C@@H](CC(C)C)C(=O)N[C@@H](Cc1ccc(O)cc1)C(=O)N[C@H](CCCNC(=N)N)C(=O)N[C@@H](CC(C)C)C(=O)N[C@@H](CCCNC(=N)N)C(=O)O)[C@@H](C)CC)C(C)C)[C@@H](C)O)[C@@H](C)O)[C@@H](C)O | inactive | inactive | 5 µM (≈ 15.9 µg/mL) | 7.5 µM (≈ 23.8 µg/mL)
CC[C@H](C)[C@H](NC(=O)[C@H](CCCNC(=N)N)NC(=O)[C@H](CC(=O)O)NC(=O)[C@H](CC(C)C)NC(=O)[C@@H](N)CCC(=O)O)C(=O)NCC(=O)N[C@@H](Cc1ccc(O)cc1)C(=O)NCC(=O)N[C@H](C(=O)N[C@@H](C)C(=O)N[C@@H](CCCNC(=N)N)C(=O)N[C@@H](CCCNC(=N)N)C(=O)N[C@H](CCCCN)C(=O)N[C@H](CCCCN)C(=O)N[C@@H](CCCNC(=N)N)C(=O)O)[C@@H](C)O | inactive | inactive | 20 µM (≈ 36.4 µg/mL) | 60 µM (≈ 109 µg/mL)
CCCCCCCCCCCCCC(=O)N[C@@H](C)C(=O)N[C@H](C(=O)N[C@@H](Cc1ccc(O)cc1)C(=O)N[C@@H](CCCNC(=N)N)C(=O)N[C@H](C(=O)NCC(=O)N[C@@H](CCCNC(=N)N)C(=O)N[C@@H](C)C(=O)N[C@H](C(=O)N[C@@H](CCCNC(=N)N)C(=O)N[C@@H](CCC(=O)O)C(=O)N[C@@H](CO)C(=O)N[C@@H](CC(C)C)C(=O)N[C@@H](CO)C(=O)NCC(=O)N[C@H](C(=O)N[C@@H](CCC(=O)O)C(=O)N[C@H](C(=O)N[C@@H](CO)C(=O)NCC(=O)N[C@@H](CCCNC(=N)N)C(=O)N[C@@H](CC(C)C)C(=O)N[C@@H](Cc1ccc(O)cc1)C(=O)N[C@@H](CCCNC(=N)N)C(=O)N[C@@H](CC(C)C)C(=O)N[C@@H](CCCNC(=N)N)C(=O)O)[C@@H](C)CC)C(C)C)[C@@H](C)O)[C@@H](C)O)[C@@H](C)O | inactive | inactive | 5 µM (≈ 15.9 µg/mL) | 7.5 µM (≈ 23.8 µg/mL)
CCCCCCCCCCCC(=O)N[C@@H](C)C(=O)N[C@H](C(=O)N[C@@H](Cc1ccc(O)cc1)C(=O)N[C@H](CCCNC(=N)N)C(=O)N[C@H](C(=O)NCC(=O)N[C@H](CCCNC(=N)N)C(=O)N[C@@H](C)C(=O)N[C@H](C(=O)N[C@H](CCCNC(=N)N)C(=O)N[C@@H](CCC(=O)O)C(=O)N[C@@H](CO)C(=O)N[C@@H](CC(C)C)C(=O)N[C@@H](CO)C(=O)NCC(=O)N[C@H](C(=O)N[C@@H](CCC(=O)O)C(=O)N[C@H](C(=O)N[C@@H](CO)C(=O)NCC(=O)N[C@H](CCCNC(=N)N)C(=O)N[C@@H](CC(C)C)C(=O)N[C@@H](Cc1ccc(O)cc1)C(=O)N[C@H](CCCNC(=N)N)C(=O)N[C@@H](CC(C)C)C(=O)N[C@@H](CCCNC(=N)N)C(=O)O)[C@@H](C)CC)C(C)C)[C@@H](C)O)[C@@H](C)O)[C@@H](C)O | inactive | inactive | 10 µM (≈ 31.5 µg/mL) | 20 µM (≈ 63 µg/mL)
CC[C@H](C)[C@H](NC(=O)[C@H](CCC(=O)O)NC(=O)[C@@H](NC(=O)CNC(=O)[C@H](CO)NC(=O)[C@H](CC(C)C)NC(=O)[C@H](CO)NC(=O)[C@H](CCC(=O)O)NC(=O)[C@H](CCCNC(=N)N)NC(=O)[C@@H](NC(=O)[C@H](C)NC(=O)[C@H](CCCNC(=N)N)NC(=O)CNC(=O)[C@@H](NC(=O)[C@H](CCCNC(=N)N)NC(=O)[C@H](Cc1ccc(O)cc1)NC(=O)[C@@H](NC(=O)[C@H](C)N)[C@@H](C)O)[C@@H](C)O)[C@@H](C)O)C(C)C)C(=O)N[C@@H](CO)C(=O)NCC(=O)N[C@@H](CCCNC(=N)N)C(=O)N[C@@H](CC(C)C)C(=O)N[C@@H](Cc1ccc(O)cc1)C(=O)N[C@@H](CCCNC(=N)N)C(=O)N[C@@H](CC(C)C)C(=O)N[C@@H](CCCNC(=N)N)C(=O)O | inactive | inactive | 50 µM (≈ 148 µg/mL) | > 100 µM
CC[C@H](C)[C@H](NC(=O)CNC(=O)[C@H](CCCNC(=N)N)NC(=O)[C@@H](NC(=O)[C@@H](NC(=O)[C@@H](NC(=O)CNC(=O)[C@H](Cc1ccc(O)cc1)NC(=O)[C@H](CCCNC(=N)N)NC(=O)[C@H](Cc1ccc(O)cc1)NC(=O)[C@H](CCC(=O)O)NC(=O)[C@@H](NC(=O)[C@H](CO)NC(=O)[C@H](Cc1ccc(O)cc1)NC(=O)[C@H](CO)NC(=O)[C@H](CCCNC(=N)N)NC(=O)[C@H](CCCNC(=N)N)NC(=O)[C@H](Cc1cnc[nH]1)NC(=O)[C@@H](NC(=O)[C@H](Cc1ccccc1)NC(=O)[C@H](C)NC)[C@@H](C)O)[C@@H](C)O)[C@@H](C)O)[C@@H](C)O)C(C)C)C(=O)N[C@@H](CCCNC(=N)N)C(=O)N[C@@H](Cc1cnc[nH]1)C(=O)N[C@@H](CCCNC(=N)N)C(=O)N[C@@H](Cc1ccccc1)C(=O)N[C@@H](CC(C)C)C(=O)O (H-[NMeA]FTHRRSYSTEYRYGTTVRGIRHRFL-OH) | inactive | inactive | 10 µM (≈ 32.5 µg/mL) | 10 µM (≈ 32.5 µg/mL)
CCCCCCCCCCCCCC(=O)N[C@@H](C)C(=O)N[C@@H](Cc1ccccc1)C(=O)N[C@H](C(=O)N[C@H](CCCNC(=N)N)C(=O)N[C@H](CCCNC(=N)N)C(=O)N[C@H](CCCNC(=N)N)C(=O)N[C@@H](CO)C(=O)N[C@@H](Cc1ccc(O)cc1)C(=O)N[C@@H](CO)C(=O)N[C@H](C(=O)N[C@@H](CCC(=O)O)C(=O)N[C@@H](Cc1ccc(O)cc1)C(=O)N[C@@H](CO)C(=O)N[C@@H](Cc1ccc(O)cc1)C(=O)NCC(=O)N[C@H](C(=O)N[C@H](C(=O)N[C@H](C(N)=O)C(C)C)[C@@H](C)O)[C@@H](C)O)[C@@H](C)O)[C@@H](C)O | inactive | inactive | 20 µM (≈ 47.1 µg/mL) | 50 µM (≈ 118 µg/mL)
CC[C@H](C)[C@H](NC(=O)[C@H](CCC(=O)O)NC(=O)[C@@H](NC(=O)CNC(=O)[C@H](CO)NC(=O)[C@H](CC(C)C)NC(=O)[C@H](CO)NC(=O)[C@H](CCC(=O)O)NC(=O)[C@@H](CCCNC(=N)N)NC(=O)[C@@H](NC(=O)[C@H](C)NC(=O)[C@@H](CCCNC(=N)N)NC(=O)CNC(=O)[C@@H](NC(=O)[C@@H](CCCNC(=N)N)NC(=O)[C@H](Cc1ccc(O)cc1)NC(=O)[C@@H](NC(=O)[C@H](C)N)[C@@H](C)O)[C@@H](C)O)[C@@H](C)O)C(C)C)C(=O)N[C@@H](CO)C(=O)NCC(=O)N[C@H](CCCNC(=N)N)C(=O)N[C@@H](CC(C)C)C(=O)N[C@@H](Cc1ccc(O)cc1)C(=O)N[C@H](CCCNC(=N)N)C(=O)N[C@@H](CC(C)C)C(=O)N[C@@H](CCCNC(=N)N)C(=O)O | inactive | inactive | 50 µM (≈ 148 µg/mL) | > 100 µM
CCCCCCCCCCCCCC(=O)N[C@@H](C)C(=O)N[C@@H](Cc1ccccc1)C(=O)N[C@H](C(=O)N[C@@H](CCCNC(=N)N)C(=O)N[C@@H](CCCNC(=N)N)C(=O)N[C@@H](CCCNC(=N)N)C(=O)N[C@@H](CO)C(=O)N[C@@H](Cc1ccc(O)cc1)C(=O)N[C@@H](CO)C(=O)N[C@H](C(=O)N[C@@H](CCC(=O)O)C(=O)N[C@@H](Cc1ccc(O)cc1)C(=O)N[C@@H](CO)C(=O)N[C@@H](Cc1ccc(O)cc1)C(=O)NCC(=O)N[C@H](C(=O)N[C@H](C(=O)N[C@H](C(N)=O)C(C)C)[C@@H](C)O)[C@@H](C)O)[C@@H](C)O)[C@@H](C)O | inactive | inactive | 10 µM (≈ 23.5 µg/mL) | 20 µM (≈ 47.1 µg/mL)
CCCCCCCCCCCCCC(=O)N[C@@H](CCC(=O)O)C(=O)N[C@@H](CC(C)C)C(=O)N[C@@H](CC(=O)O)C(=O)N[C@@H](CCCNC(=N)N)C(=O)N[C@H](C(=O)NCC(=O)N[C@@H](Cc1ccc(O)cc1)C(=O)NCC(=O)N[C@H](C(=O)N[C@@H](C)C(=O)N[C@@H](CCCNC(=N)N)C(=O)N[C@@H](CCCNC(=N)N)C(=O)N[C@H](CCCCN)C(=O)N[C@H](CCCCN)C(=O)N[C@@H](CCCNC(=N)N)C(=O)O)[C@@H](C)O)[C@@H](C)CC | inactive | inactive | 5 µM (≈ 10.1 µg/mL) | 10 µM (≈ 20.3 µg/mL)
CCCCCCCCCCCCCC(=O)N[C@@H](CCC(=O)O)C(=O)N[C@@H](CC(C)C)C(=O)N[C@@H](CC(=O)O)C(=O)N[C@H](CCCNC(=N)N)C(=O)N[C@H](C(=O)NCC(=O)N[C@@H](Cc1ccc(O)cc1)C(=O)NCC(=O)N[C@H](C(=O)N[C@@H](C)C(=O)N[C@H](CCCNC(=N)N)C(=O)N[C@H](CCCNC(=N)N)C(=O)N[C@@H](CCCCN)C(=O)N[C@@H](CCCCN)C(=O)N[C@@H](CCCNC(=N)N)C(=O)O)[C@@H](C)O)[C@@H](C)CC | inactive | inactive | 5 µM (≈ 10.1 µg/mL) | 10 µM (≈ 20.3 µg/mL)
CCCCCCCCCCCC(=O)N[C@@H](C)C(=O)N[C@H](C(=O)N[C@@H](Cc1ccc(O)cc1)C(=O)N[C@@H](CCCNC(=N)N)C(=O)N[C@H](C(=O)NCC(=O)N[C@@H](CCCNC(=N)N)C(=O)N[C@@H](C)C(=O)N[C@H](C(=O)N[C@@H](CCCNC(=N)N)C(=O)N[C@@H](CCC(=O)O)C(=O)N[C@@H](CO)C(=O)N[C@@H](CC(C)C)C(=O)N[C@@H](CO)C(=O)NCC(=O)N[C@H](C(=O)N[C@@H](CCC(=O)O)C(=O)N[C@H](C(=O)N[C@@H](CO)C(=O)NCC(=O)N[C@@H](CCCNC(=N)N)C(=O)N[C@@H](CC(C)C)C(=O)N[C@@H](Cc1ccc(O)cc1)C(=O)N[C@@H](CCCNC(=N)N)C(=O)N[C@@H](CC(C)C)C(=O)N[C@@H](CCCNC(=N)N)C(=O)O)[C@@H](C)CC)C(C)C)[C@@H](C)O)[C@@H](C)O)[C@@H](C)O | inactive | inactive | 20 µM (≈ 63 µg/mL) | 2 µM (≈ 6.3 µg/mL)
